US20120321609A1, “METHOD OF TREATING PSYCHOLOGICAL DISORDERS” (priority 2011, published 2012)

What was measured:
5-HT2AR = target: T1, 5-HT2AR (Homo sapiens, UniProt P28223); test: 5-HT-stimulated inositol phosphate formation in HEK 293 cells transfected with FLAG-5-HT2AR and HA-CRFR1; type: cell-based
T1 construct: expressed in transfected cells; host or cells: HEK 293

mouse neuronal cultures = test: Inositol phosphate formation in mouse cortical neuronal cultures; type: cell-based; settings: CRF 500 nM pretreatment 30 min; 5-HT 50 μM
[1] = system: slices prepared from prefrontal cortex; test: Inositol phosphate formation in prefrontal cortex slices; type: cell-based, mouse; settings: CRF 500 nM pretreatment
Procedure: Slices were incubated for 15 min at 37° C. […] (final volume=270 μl).

mice [2] = test: Open field test (anxiety-related behaviour); type: in vivo, mouse; settings: 5 min test; CRF 1.5 μg into medial prefrontal cortex, DOI 0.15 mg/kg i.p.; vs vehicle-vehicle or single treatment
Procedure: Male CD-1 mice were obtained from Charles River Canada (St. Constant, Quebec) at 50-60 days of age, and were acclimatized to the laboratory for approximately 30 days before serving as experimental subjects. Mice were housed four per cage, until the time of surgery, after which they were housed individually. The vivarium was maintained on a 12-h light/dark cycle in a temperature (21° C.) controlled room with food and water freely available. Mice were anesthetized using isoflurane and stereotaxic surgery (David Kopf Instruments Model 940) was performed to install a cannulae into the medial prefrontal cortex. A Guide cannulae (Plastics One In), situated according to the mouse atlas of Franklin and Paxinos at Lateral=0.32 mm, D/V=2.25 mm, A/P=+2.68 mm. A dummy cannula, was inserted flush with guide. Approximately 1 week after behavioral testing mice were perfused with 4% paraformaldehyde. […]
In an initial test, mice were placed in a 45×45 cm open field, with an inner square of 21×24×24 cm., for a 5 min period, during which the time to enter the center area, and the total time spent in the center portion of the arena was recorded. […] Mice were individually placed in one of the enclosed arms of a plus-maze and the behavior of the animals was recorded over a 5 min period by a ceiling-mounted video camera. […]

mice [3] = test: Elevated plus maze test (anxiety-related behaviour); type: in vivo, mouse; settings: DOI 0.15 mg/kg i.p.
Procedure: Male CD-1 mice were obtained from Charles River Canada (St. Constant, Quebec) at 50-60 days of age, and were acclimatized to the laboratory for approximately 30 days before serving as experimental subjects. Mice were housed four per cage, until the time of surgery, after which they were housed individually. The vivarium was maintained on a 12-h light/dark cycle in a temperature (21° C.) controlled room with food and water freely available. Mice were anesthetized using isoflurane and stereotaxic surgery (David Kopf Instruments Model 940) was performed to install a cannulae into the medial prefrontal cortex. A Guide cannulae (Plastics One In), situated according to the mouse atlas of Franklin and Paxinos at Lateral=0.32 mm, D/V=2.25 mm, A/P=+2.68 mm. A dummy cannula, was inserted flush with guide. Approximately 1 week after behavioral testing mice were perfused with 4% paraformaldehyde. Brains were subsequently sectioned at 14 microns and stained with Cresyl violet for probe placement verification. Only the data from mice with correct probe placements were used in the analysis of the behavioral tests.
Drug diffusion was permitted for 5 min, and then after a further 5 min period mice were injected intraperotineally with DOI (Sigma) at a dose of 0.15 mg/kg or saline. Behavioral testing was conducted 15 min after the DOI treatment. In a second experiment the procedure was identical to that of the preceding study, except that mice were pretreated i.p. with either vehicle or 0.25 mg/kg of M100907 in a volume of 0.3 ml immediately prior to the DOI treatment. As in the preceding study mice were then tested in the elevated plus maze test (n=6-8)/group. Once again, data were obtained from videotapes and the researcher was blind as to the treatments mice had received.
In an initial test, mice were placed in a 45×45 cm open field, with an inner square of 21×24×24 cm., for a 5 min period, during which the time to enter the center area, and the total time spent in the center portion of the arena was recorded. The plus maze test was then conducted 1 min after the open field assessment. Mice were individually placed in one of the enclosed arms of a plus-maze and the behavior of the animals was recorded over a 5 min period by a ceiling-mounted video camera. The amount of time spent in each of the arms, the number of arm entries (an arm entry was defined as all four of the paws being placed in an arm of the plus-maze). The elevated plus-maze had two arms enclosed by 21 cm high walls; whereas the remaining two arms were open (arms were 24.8 cm long×7.7 cm wide). The maze was situated in a dimly lit room, such that the closed arms were darkened, whereas open arms were somewhat illuminated. All behavioural experiments were blinded. All experiments complied with the guidelines set by the Canadian Council on Animal Care and were approved by the Carleton University Animal Care Committee.

HA-CRFR1 = target: T2, HA-CRFR1 (Homo sapiens, UniProt P34998); test: Receptor endocytosis by flow cytometry in HEK 293 cells; type: cell-based; settings: 500 nM CRF for 30 min at 37° C.; cells expressing only wild-type CRFR1
T2 construct: expressed in transfected cells; host or cells: HEK 293
T2 sequence (P34998 24-415): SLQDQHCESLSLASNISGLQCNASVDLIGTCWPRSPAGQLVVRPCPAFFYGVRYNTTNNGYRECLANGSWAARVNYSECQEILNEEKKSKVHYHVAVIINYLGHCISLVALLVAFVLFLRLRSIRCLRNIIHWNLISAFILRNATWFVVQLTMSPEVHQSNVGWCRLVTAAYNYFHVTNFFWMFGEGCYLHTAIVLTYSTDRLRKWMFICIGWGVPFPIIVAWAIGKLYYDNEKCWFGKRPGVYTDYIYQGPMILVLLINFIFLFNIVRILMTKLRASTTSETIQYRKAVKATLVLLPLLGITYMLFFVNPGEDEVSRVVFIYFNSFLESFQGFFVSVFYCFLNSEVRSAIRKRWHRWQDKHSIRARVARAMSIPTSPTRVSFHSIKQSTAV
Procedure: Cells were seeded on 10 cm dishes at 70-80% density 24 h prior to transfection. Transfection was performed using a modified calcium phosphate method, as described previously (Ferguson et al. (2004) Methods Mol. Biol. 237, 121-126). 1 μg of each construct was used for each transfection, with the exception that 3 μg of plasmid cDNA was used for all shRNA constructs. Empty pcDNA3.1 vector was used to equalize the total amount of plasmid cDNA used to transfect cells. 18 h post-transfection, cells were washed with phosphate buffered saline (PBS) and re-suspended with Trypsin 0.25% EDTA. Cells were then reseeded for experimentation. All experiments were conducted approximately 48 h after the initial transfection, with exception of transfections involving SAP97 shRNA, which were conducted 72 h after initial transfection to optimize the knockdown of endogenous SAP97, as confirmed by Western blotting.
Following transfection, HEK 293 cells were re-seeded into 12-well plates. […] Cells were washed with cold HBSS and treated with mouse anti-HA antibody (1:500) for 45 min on ice. […] Samples were run on a FACSCalibur cytometer using BD CellQuest Pro software until 10,000 cells were counted. The geometric mean of fluorescence was determined using FlowJo analysis software, with less fluorescence corresponding to less CRFR1 on the membrane.

[4] = first experiment, CRF 1.5 μg into medial prefrontal cortex
[5] = second experiment (M100907 study), CRF 1.5 μg mPFC, M100907 0.25 mg/kg i.p.

T1 sequence (P28223 whole entry): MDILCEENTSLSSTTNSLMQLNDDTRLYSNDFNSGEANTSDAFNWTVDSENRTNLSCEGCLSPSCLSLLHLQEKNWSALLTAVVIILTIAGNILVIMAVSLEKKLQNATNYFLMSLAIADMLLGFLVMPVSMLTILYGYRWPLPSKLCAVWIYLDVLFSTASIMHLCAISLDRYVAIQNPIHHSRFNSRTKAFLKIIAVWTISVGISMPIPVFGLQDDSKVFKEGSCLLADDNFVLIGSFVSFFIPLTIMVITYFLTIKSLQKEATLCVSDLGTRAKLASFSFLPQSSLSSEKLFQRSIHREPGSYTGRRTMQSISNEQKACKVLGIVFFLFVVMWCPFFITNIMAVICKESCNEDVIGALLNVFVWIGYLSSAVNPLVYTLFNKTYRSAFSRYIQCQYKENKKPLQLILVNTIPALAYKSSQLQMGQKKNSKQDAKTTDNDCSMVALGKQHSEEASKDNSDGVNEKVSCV

## CRF: 41 amino acid peptide that activates the HPA axis; agonist of CRF receptors
5-HT2AR; CRF pretreatment 500 nM for 30 min, cells expressing 5-HT2AR along with CRFR1
  increase in maximum efficacy (EMAX) for 5-HT2AR-stimulated inositol phosphate formation: 40±4.7%
5-HT2AR; HEK 293 cells expressing 5-HT2AR in the absence of CRFR1, CRF 500 nM 30 min
  effect of pretreatment on 5-HT dose-response curve for inositol phosphate formation, 5-HT2AR: had no effect
Mouse neuronal cultures
  effect of pretreatment on 5-HT-stimulated [3H]-myo-inositol conversion to inositol phosphate: significantly increase
[1]; stimulated with 5-HT
  increase in 5-HT-stimulated inositol phosphate formation: 2.3±0.2 fold
[1]; stimulated with DOI 10 μM
  increase in DOI-stimulated inositol phosphate formation: 1.5±0.2 fold
Mice [2]
  latency to enter the center square of open field: neither the CRF nor the DOI treatments alone influenced performance
Mice [3]; [4]
  latency to enter an open arm of the plus maze: had no effect
  number of entries into the closed arms of the plus maze: did not vary
  number of entries onto the open arms of the plus maze: had no effect
Mice [3]; [5]
  frequency of open arm entries in the plus maze: neither CRF nor DOI alone affected the frequency of open arm entries
  latency to enter the open arms of the plus maze: moderate, but statistically significant increase
  time spent in the closed arms of the plus maze: unaffected
Mice [3]; second experiment (M100907 study), CRF 1.5 μg mPFC, M100907 0.25 mg/kg i.p., relative to vehicle
  entries to the closed arms of the plus maze: increased closed arm entries
HA-CRFR1
  loss of cell surface HA-CRFR1: 24±4%
